# Laboratory results: patent US8785156B2, “TLE3 as a marker for chemotherapy” (Clarient Diagnostic Services, Inc., priority 2007, dated 2014)
# System: ovarian cancer patients (UAB cohort)
# Assay: Kaplan-Meier recurrence curves, University of Alabama at Birmingham (UAB) ovarian cancer cohort, patients classified by TLE3 antibody staining
# Type: in vivo, human
# Conditions: all patients received paclitaxel, most also platinum chemotherapy (carboplatin or cisplatin)
# Source text: All patients received paclitaxel. Most patients also received platinum chemotherapy (carboplatin or cisplatin). Recurrence data from TLE3-positive and TLE3-negative patients in this subset were used to generate the top and bottom curves, respectively. As shown in the Figure, antibody binding to the TLE3 marker correlated with prognosis in these treated patients (HR=0.64, p<0.049).
# Kaplan-Meier recurrence curves that were generated using patients in the RP breast cancer cohort that received chemotherapy are consistent with this prediction model (see FIG. 6, HR=0.194, p=0.010). Kaplan-Meier recurrence curves that were generated using patients in the UAB ovarian cancer cohort that received chemotherapy are also consistent with this prediction model (see FIG. 18, HR=0.64, p=0.049).
structure (smiles),measurement,value
CC(=O)O[C@H]1C(=O)[C@@]2(C)[C@H]([C@H](OC(=O)c3ccccc3)[C@]3(O)C[C@H](OC(=O)[C@H](O)[C@@H](NC(=O)c4ccccc4)c4ccccc4)C(C)=C1C3(C)C)[C@]1(OC(C)=O)CO[C@@H]1C[C@@H]2O [paclitaxel],"HR (recurrence, TLE3-positive vs TLE3-negative patients)",0.64
